Calls of active or inactive are those of the source. The calls are words filed in the database; no cut-off is given here.
Tests used:
[1] = target: Histone acetyltransferase KAT2A (Homo sapiens) (UniProt Q92830); assay: Inhibition of human histone acetyltransferase GCN5 in U937 cell nuclear extracts assessed as remaining enzyme activity at 50 uM; assay type: cell-free; conditions: U-937
[2] = target: Histone acetyltransferase KAT2B (Homo sapiens) (UniProt Q92831); assay: Inhibition of human GST-fused histone acetyltransferase PCAF in U937 cell nuclear extracts assessed as remaining enzyme activity at 50 uM; assay type: cell-free; conditions: U-937
[3] = target: Histone acetyltransferase p300 (Homo sapiens) (UniProt Q09472); assay: Inhibition of human immunoprecipitated histone acetyltransferase p300 in U937 cell nuclear extracts assessed as remaining enzyme activity at 50 uM; assay type: cell-free; conditions: U-937
Histone acetyltransferase p300 (Homo sapiens), sequence (Q09472 whole entry): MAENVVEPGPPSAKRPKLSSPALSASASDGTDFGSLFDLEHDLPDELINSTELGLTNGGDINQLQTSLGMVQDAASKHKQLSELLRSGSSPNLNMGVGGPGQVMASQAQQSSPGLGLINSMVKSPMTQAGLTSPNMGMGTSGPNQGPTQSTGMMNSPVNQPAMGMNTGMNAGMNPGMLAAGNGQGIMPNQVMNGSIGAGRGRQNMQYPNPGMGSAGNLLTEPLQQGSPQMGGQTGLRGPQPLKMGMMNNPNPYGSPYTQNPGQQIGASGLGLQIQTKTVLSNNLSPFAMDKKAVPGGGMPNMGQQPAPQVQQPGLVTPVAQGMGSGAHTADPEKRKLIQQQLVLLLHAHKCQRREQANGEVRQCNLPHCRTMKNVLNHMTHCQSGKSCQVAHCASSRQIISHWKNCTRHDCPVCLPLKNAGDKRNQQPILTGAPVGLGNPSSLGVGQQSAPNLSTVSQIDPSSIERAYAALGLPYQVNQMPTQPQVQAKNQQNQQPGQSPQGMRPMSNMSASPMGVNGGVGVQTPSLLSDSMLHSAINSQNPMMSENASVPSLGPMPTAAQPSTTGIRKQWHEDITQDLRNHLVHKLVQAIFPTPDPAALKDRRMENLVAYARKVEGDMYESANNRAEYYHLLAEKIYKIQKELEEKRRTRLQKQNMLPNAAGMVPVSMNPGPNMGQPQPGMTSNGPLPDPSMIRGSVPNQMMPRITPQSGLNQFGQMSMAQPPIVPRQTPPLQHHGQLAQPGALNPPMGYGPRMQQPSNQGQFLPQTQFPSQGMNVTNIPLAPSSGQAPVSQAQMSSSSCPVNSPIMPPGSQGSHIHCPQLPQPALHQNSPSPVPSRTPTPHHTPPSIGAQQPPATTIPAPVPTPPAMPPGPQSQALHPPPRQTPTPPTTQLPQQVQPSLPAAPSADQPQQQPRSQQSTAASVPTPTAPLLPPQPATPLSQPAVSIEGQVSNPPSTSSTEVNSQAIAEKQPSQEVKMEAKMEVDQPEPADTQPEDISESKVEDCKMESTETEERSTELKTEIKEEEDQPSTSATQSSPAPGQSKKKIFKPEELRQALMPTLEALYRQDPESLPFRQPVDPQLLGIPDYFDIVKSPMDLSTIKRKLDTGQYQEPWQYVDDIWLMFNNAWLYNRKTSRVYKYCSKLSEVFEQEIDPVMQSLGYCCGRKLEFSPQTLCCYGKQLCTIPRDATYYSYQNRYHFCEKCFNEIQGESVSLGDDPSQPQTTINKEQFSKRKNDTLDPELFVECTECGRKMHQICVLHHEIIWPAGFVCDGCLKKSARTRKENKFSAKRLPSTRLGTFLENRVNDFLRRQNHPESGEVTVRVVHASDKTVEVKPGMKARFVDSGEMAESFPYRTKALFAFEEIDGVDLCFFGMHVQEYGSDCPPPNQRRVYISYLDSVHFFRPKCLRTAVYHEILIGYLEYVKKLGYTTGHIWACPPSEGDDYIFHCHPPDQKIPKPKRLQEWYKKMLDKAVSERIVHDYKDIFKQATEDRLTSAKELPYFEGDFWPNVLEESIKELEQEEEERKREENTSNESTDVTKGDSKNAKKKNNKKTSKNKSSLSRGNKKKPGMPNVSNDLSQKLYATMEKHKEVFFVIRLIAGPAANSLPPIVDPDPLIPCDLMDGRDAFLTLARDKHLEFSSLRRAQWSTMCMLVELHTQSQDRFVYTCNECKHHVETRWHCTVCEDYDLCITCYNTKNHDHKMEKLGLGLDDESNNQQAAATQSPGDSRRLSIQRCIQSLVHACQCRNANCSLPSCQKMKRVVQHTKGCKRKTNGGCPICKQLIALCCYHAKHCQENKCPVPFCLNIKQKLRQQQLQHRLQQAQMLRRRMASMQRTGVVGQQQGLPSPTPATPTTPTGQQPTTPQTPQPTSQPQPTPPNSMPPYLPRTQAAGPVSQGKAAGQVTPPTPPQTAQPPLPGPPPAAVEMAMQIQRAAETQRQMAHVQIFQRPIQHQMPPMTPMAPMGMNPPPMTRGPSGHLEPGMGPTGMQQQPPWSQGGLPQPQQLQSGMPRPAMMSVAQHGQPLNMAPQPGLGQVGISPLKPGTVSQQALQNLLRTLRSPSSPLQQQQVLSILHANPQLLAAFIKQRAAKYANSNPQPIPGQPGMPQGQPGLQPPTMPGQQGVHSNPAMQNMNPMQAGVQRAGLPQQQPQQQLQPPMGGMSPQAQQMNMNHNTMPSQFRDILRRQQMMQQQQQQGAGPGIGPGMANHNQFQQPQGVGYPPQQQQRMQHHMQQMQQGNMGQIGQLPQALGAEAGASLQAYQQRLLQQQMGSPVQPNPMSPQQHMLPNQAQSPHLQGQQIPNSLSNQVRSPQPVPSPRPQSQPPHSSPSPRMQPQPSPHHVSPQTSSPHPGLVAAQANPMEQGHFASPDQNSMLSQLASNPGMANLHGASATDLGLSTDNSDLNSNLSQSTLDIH

U-937 [4] = assay: Cell cycle arrest in human U937 cells assessed as loss of accumulation at G2 phase at 20 nM after 24 hrs; assay type: functional, cell-based
U-937 [5] = assay: Inhibition of SAHA-induced alpha tubulin acetylation in human U937 cells at 100 uM after 4 hrs by Western blot analysis; assay type: functional, cell-based
U-937 [6] = assay: Inhibition of SAHA-induced histone H3 acetylation in human U937 cells at 100 uM after 4 hrs by Western blot analysis; assay type: functional, cell-based
[7] = target: CREB-binding protein (Homo sapiens) (UniProt Q92793); assay: Inhibition of human GST-fused histone acetyltransferase CBP in U937 cell nuclear extracts assessed as remaining enzyme activity at 50 uM; assay type: cell-free; conditions: U-937
CREB-binding protein (Homo sapiens), sequence (Q92793 2-2442 limits assumed): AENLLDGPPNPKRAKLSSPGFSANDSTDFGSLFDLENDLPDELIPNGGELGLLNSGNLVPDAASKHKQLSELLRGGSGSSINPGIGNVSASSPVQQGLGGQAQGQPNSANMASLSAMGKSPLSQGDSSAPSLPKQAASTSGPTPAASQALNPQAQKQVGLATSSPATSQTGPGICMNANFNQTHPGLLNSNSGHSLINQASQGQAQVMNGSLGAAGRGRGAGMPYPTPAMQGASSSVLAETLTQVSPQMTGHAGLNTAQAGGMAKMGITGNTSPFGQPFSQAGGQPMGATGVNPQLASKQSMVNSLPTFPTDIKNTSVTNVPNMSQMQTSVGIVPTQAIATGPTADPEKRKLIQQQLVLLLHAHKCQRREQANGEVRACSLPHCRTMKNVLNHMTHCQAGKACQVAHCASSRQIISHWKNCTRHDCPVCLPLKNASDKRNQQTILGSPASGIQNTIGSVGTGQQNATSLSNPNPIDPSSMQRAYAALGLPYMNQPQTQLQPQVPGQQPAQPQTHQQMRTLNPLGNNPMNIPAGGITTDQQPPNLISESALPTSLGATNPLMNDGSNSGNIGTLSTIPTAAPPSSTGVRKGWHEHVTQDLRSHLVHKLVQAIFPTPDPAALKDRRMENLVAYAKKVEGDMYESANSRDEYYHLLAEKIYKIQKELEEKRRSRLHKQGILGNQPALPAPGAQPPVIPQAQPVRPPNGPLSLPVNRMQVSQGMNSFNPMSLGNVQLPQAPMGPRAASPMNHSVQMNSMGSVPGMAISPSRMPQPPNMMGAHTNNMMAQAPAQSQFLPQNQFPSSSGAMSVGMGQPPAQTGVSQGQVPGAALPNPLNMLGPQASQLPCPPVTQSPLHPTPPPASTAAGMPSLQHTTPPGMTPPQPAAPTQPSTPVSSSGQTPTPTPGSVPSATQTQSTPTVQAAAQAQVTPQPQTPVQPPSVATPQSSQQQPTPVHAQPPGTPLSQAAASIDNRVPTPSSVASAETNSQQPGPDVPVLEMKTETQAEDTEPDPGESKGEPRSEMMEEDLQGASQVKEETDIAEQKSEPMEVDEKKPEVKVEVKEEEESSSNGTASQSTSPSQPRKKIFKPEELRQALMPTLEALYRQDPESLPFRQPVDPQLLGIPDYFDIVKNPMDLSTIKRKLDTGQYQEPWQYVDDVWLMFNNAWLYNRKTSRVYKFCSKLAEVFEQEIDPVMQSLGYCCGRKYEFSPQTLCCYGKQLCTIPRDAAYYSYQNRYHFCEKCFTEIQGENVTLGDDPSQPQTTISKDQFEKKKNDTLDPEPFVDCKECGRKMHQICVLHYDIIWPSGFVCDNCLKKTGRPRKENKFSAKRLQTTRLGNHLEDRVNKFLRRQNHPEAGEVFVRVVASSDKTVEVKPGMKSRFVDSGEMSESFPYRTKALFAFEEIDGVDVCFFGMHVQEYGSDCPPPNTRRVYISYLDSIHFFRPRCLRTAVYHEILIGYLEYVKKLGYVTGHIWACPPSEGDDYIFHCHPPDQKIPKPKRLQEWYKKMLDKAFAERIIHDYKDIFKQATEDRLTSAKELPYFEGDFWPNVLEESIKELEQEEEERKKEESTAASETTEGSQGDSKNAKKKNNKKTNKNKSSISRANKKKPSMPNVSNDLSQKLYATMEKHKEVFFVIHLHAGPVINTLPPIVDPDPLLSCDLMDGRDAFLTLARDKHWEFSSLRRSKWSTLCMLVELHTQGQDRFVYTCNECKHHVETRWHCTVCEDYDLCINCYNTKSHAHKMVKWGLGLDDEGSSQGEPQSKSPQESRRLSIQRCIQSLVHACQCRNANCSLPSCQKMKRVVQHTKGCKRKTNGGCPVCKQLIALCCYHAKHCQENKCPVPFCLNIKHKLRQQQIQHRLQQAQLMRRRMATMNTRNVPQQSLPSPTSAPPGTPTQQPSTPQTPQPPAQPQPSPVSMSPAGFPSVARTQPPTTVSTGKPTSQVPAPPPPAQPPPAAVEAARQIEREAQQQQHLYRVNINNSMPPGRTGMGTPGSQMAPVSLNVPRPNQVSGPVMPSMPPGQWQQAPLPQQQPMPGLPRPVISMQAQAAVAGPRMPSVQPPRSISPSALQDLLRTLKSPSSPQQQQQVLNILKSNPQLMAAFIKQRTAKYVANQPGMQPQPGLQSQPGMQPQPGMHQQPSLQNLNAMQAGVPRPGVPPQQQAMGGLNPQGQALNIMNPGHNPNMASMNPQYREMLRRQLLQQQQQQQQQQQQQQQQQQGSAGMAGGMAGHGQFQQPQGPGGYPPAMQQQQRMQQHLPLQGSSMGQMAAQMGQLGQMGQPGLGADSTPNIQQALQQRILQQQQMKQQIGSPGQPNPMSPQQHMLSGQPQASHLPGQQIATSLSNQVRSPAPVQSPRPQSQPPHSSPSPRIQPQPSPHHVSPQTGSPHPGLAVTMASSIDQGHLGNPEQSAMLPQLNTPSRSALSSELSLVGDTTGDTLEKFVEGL

U-937 [8] = assay: Induction of cell differentiation in human U937 cells assessed as cytodifferentiation at 20 uM after 24 hrs by CD11c/PI method; assay type: functional, cell-based
U-937 [9] = assay: Cell cycle arrest in human U937 cells assessed as accumulation at G1/S phase at 20 nM after 24 hrs; assay type: functional, cell-based
U-937 [10] = assay: Inhibition of human histone acetyltransferase in U937 cell nuclear extracts at 50 uM; assay type: cell-free
U-937 [11] = assay: Induction of apoptosis in human U937 cells at 100 uM by annexin V/propidium iodide double staining; assay type: functional, cell-based
U-937 [12] = assay: Induction of apoptosis in human U937 cells at 20 uM by annexin V/propidium iodide double staining; assay type: functional, cell-based

SMILES	Activity [1]	Activity [2]	Activity [3]	Activity (U-937 [4])	Activity (U-937 [5])	Activity (U-937 [6])	Activity [7]	Activity (U-937 [8])	Activity (U-937 [9])	inhibition (U-937 [10])	Activity (U-937 [11])	Activity (U-937 [12])
CCCCCCCCCCc1nc2ccccc2c(O)c1C(=O)O	95.4%	91.5%	53.9%	inactive	Active	Active	13.2%	Active	inactive			
CCOC(=O)c1c(C)nc2ccccc2c1O	97.4%	81.7%	16.4%	inactive	inactive	Active	13.4%	Active	inactive			
CCCCCc1nc2ccccc2c(O)c1C(=O)OCC	102%	100%	47.7%	inactive	Active	Active	91.2%	Active	inactive			
Cc1nc2ccccc2c(O)c1C(=O)O	97.4%	104%	11.4%	inactive	Active	Active	20.5%	Active	inactive			
C=C1C(=O)O[C@H](CCC)[C@H]1C(=O)O	54.5%	76.8%	58.6%				45.9%			44%		
CCCCCCCCCCc1nc2ccccc2c(O)c1C(=O)OCC	93.4%	90.1%	39.1%	Active	inactive	Active	93.4%	Active	Active		Active	Active
CCCCCc1nc2ccccc2c(O)c1C(=O)O	98%	103%	82%	inactive	Active	Active	19%	Active	inactive	30%		
CCCCCCCCCCCCCCCc1nc2ccccc2c(O)c1C(=O)OCC	96.8%	82.4%	39.8%	Active	Active	Active	116%	Active	Active		Active	Active
CCCCCCCCCCCCCCCc1nc2ccccc2c(O)c1C(=O)O	103%	62.7%	46.9%	inactive	Active	Active	14.4%	Active	inactive			
C=CC/C=C\C/C=C\CCCCCCCc1cccc(O)c1C(=O)O	113%	52.1%	53.1%				44%			15%		

Reference: ChEMBL document CHEMBL1136851, “Identification of 4-hydroxyquinolines inhibitors of p300/CBP histone acetyltransferases” (Bioorg Med Chem Lett, 2009)
